The Kinase Knowledgebase extract (Sharma et al. 2016)

Experiments:
[1] = molecular target: EGFR (human) (UniProt P00533); conditions: hcc827
[2] = molecular target: EGFR (human), P00533 [WT]
[3] = molecular target: EGFR (human), P00533 [Inhibition of EGFR(L858RT/790M) Kinase Activity]
EGFR (human), P00533 [Inhibition of EGFR(L858RT/790M) Kinase Activity], sequence (P00533 whole entry, looked up, change not shown): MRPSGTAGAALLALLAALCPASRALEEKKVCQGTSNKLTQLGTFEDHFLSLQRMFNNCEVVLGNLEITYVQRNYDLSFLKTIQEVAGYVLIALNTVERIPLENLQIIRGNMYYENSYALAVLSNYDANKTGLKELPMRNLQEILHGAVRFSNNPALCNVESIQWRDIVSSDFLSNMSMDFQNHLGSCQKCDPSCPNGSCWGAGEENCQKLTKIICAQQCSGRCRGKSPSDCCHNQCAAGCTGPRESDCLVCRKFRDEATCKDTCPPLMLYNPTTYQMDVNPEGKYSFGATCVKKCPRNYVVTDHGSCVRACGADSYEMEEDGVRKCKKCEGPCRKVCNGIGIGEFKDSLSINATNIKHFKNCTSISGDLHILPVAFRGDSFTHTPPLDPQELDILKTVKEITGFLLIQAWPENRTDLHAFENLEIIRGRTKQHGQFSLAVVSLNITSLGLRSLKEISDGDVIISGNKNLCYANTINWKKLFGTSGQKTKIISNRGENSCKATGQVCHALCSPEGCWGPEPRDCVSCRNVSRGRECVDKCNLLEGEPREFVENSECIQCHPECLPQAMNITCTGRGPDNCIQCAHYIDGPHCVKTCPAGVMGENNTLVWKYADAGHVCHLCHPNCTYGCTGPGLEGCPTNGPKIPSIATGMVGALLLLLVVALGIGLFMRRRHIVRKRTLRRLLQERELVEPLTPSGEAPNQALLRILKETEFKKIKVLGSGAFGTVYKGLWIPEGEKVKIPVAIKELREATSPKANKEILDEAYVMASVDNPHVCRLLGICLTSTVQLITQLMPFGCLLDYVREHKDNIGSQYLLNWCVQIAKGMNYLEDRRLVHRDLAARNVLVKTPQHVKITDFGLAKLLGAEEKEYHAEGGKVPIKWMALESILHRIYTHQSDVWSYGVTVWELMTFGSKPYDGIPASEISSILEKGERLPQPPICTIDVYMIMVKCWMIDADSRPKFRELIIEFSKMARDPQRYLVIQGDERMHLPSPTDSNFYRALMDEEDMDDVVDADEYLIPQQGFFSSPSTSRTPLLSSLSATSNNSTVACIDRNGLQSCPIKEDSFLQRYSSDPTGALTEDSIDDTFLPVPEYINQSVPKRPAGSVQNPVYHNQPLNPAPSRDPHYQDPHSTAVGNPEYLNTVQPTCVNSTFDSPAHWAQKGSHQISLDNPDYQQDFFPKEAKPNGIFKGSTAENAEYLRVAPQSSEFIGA

EGFR (human), sequence (P00533 whole entry, looked up): as the sequence (P00533 whole entry, looked up, change not shown) above
EGFR (human), P00533 [WT], sequence (P00533 whole entry, looked up): as the sequence (P00533 whole entry, looked up, change not shown) above

| IC50 [1] [nM] | IC50 [2] [nM] | IC50 [3] [nM] | SMILES |
| --- | --- | --- | --- |
| 301 to 999 | 101 to 900 | – | CC[C@@H](Nc1ncnc2sc3c(c12)CCCC3)c1ccccc1 |
| – | 101 to 900 | – | OC[C@@H](Nc1ncnc2sc(-c3ccccc3)cc12)c1ccccc1 |
| 1 to 99 | < 59 | 500 to 2500 | CN(C)C/C=C/C(=O)N1CCc2c(sc3ncnc(N[C@H](COCc4ccccn4)c4ccccc4)c23)C1 |
| – | 101 to 900 | 10 to 499 | C=CC(=O)Nc1cccc(-c2c(-c3ccccc3)oc3ncnc(N[C@H](COC(=O)C=C)c4ccccc4)c23)c1 |
| 1 to 99 | < 59 | – | CN(C)C/C=C/C(=O)N1CCc2c(sc3ncnc(N[C@H](COCc4cccnc4)c4ccccc4)c23)C1 |
| 1 to 99 | < 59 | 10 to 499 | C=CC(=O)N1CCc2c(sc3ncnc(N[C@H](COCc4cccc(C)c4)c4ccccc4)c23)C1 |
| 301 to 999 | 101 to 900 | – | OC[C@@H](Nc1ncnc2oc(-c3ccccc3)c(-c3ccccc3)c12)c1ccccc1 |
| 1 to 99 | < 59 | – | C[C@@H](Nc1ncnc2sc3c(c12)CCN(C(=O)/C=C/CN(C)CCO)C3)c1ccccc1 |
| 100 to 300 | 60 to 100 | 500 to 2500 | C=CS(=O)(=O)N1CCc2c(sc3ncnc(N[C@H](CO)c4ccccc4)c23)C1 |
| – | 101 to 900 | – | CC#CC(=O)Nc1cccc(-c2c(-c3ccccc3)oc3ncnc(N[C@H](COC)c4ccccc4)c23)c1 |
| 1 to 99 | – | – | CCOC(=O)/C=C/C(=O)N1CCc2c(sc3ncnc(N[C@H](CO)c4ccccc4)c23)C1 |
| 1 to 99 | < 59 | 500 to 2500 | CN(C)C/C=C/C(=O)N1CCc2c(sc3ncnc(N[C@H](COCc4ccccc4F)c4ccccc4)c23)C1 |
| 1 to 99 | < 59 | 500 to 2500 | CCN(CC)C/C=C/C(=O)N1CCc2c(sc3ncnc(N[C@H](C)c4ccccc4)c23)C1 |
| 1 to 99 | < 59 | – | C[C@@H](Nc1ncnc2sc3c(c12)CCN(C(=O)/C=C/CNN1CCCCC1)C3)c1ccccc1 |
| 1 to 99 | < 59 | 500 to 2500 | O=C(/C=C/CN1CCCCC1)N1CCc2c(sc3ncnc(N[C@H](CO)c4ccccc4)c23)C1 |
| 100 to 300 | < 59 | 10 to 499 | C=CC(=O)N1CCc2c(sc3ncnc(N[C@H](COCc4ccc(C(F)(F)F)cc4)c4ccccc4)c23)C1 |
| 301 to 999 | – | – | CC[C@@H](Nc1ncnc2oc(-c3ccccc3)c(-c3ccccc3)c12)c1ccccc1 |
| – | < 59 | – | O=C(O)[C@@H](Nc1ncnc2oc(-c3ccccc3)c(Br)c12)c1ccccc1 |
| 1 to 99 | < 59 | – | CCN(C/C=C/C(=O)N1CCc2c(sc3ncnc(N[C@H](C)c4ccccc4)c23)C1)CCO |
| 1 to 99 | < 59 | 500 to 2500 | COc1cccc(COC[C@@H](Nc2ncnc3sc4c(c23)CCN(C(=O)/C=C/CN(C)C)C4)c2ccccc2)c1 |
| 301 to 999 | – | – | OC[C@@H](Nc1ncnc2sc3c(c12)CCC3)c1ccccc1 |
| 100 to 300 | 60 to 100 | – | CC(=O)Nc1ccc(-c2c(-c3ccccc3)oc3ncnc(N[C@H](CO)c4ccccc4)c23)cc1 |
| 301 to 999 | 101 to 900 | 500 to 2500 | C=CC(=O)N1CCc2c(sc3ncnc(N[C@@H](CCO)c4ccccc4)c23)C1 |
| 1 to 99 | < 59 | 500 to 2500 | C=CC(=O)N1CCc2c(sc3ncnc(N[C@H](C)c4ccccc4)c23)C1 |
| 1 to 99 | < 59 | 500 to 2500 | CNC/C=C/C(=O)N1CCc2c(sc3ncnc(N[C@H](C)c4ccccc4)c23)C1 |
| 1 to 99 | < 59 | 10 to 499 | CN(C)C/C=C/C(=O)N1CCc2c(sc3ncnc(N[C@H](CO)c4ccccc4)c23)C1 |

| IC50 [1] [nM] | IC50 [2] [nM] | IC50 [3] [nM] | SMILES |
| --- | --- | --- | --- |
| 1 to 99 | < 59 | – | CN(C)C/C=C/C(=O)N1CCc2c(sc3ncnc(N[C@H](CCO)c4ccccc4)c23)C1 |
| 100 to 300 | < 59 | – | C=CC(=O)Nc1cccc(-c2cc3c(N[C@H](CO)c4ccccc4)ncnc3s2)c1 |
| 100 to 300 | 101 to 900 | – | OC[C@@H](Nc1ncnc2sc3c(c12)CCCC3)c1ccccc1 |
| – | 101 to 900 | – | C=CC(=O)Nc1ccc(-c2nc3c(N[C@H](CO)c4ccccc4)ncnc3o2)cc1 |
| 1 to 99 | 101 to 900 | – | CN(C)C/C=C/C(=O)N1CCc2c(sc3ncnc(N[C@H](CO)Cc4ccccc4)c23)C1 |
| 1 to 99 | < 59 | 10 to 499 | C=CC(=O)N1CCc2c(sc3ncnc(N[C@H](COC)c4ccccc4)c23)C1 |
| 1 to 99 | < 59 | 500 to 2500 | C[C@@H](Nc1ncnc2sc3c(c12)CCN(C(=O)/C=C/CNC1CC1)C3)c1ccccc1 |
| – | 101 to 900 | – | O=C(O)[C@@H](Nc1ncnc2sc3c(c12)CCC3)c1ccccc1 |
| 1 to 99 | < 59 | 10 to 499 | C=CC(=O)N1CCc2c(sc3ncnc(N[C@H](COCc4cccc(F)c4)c4ccccc4)c23)C1 |
| 1 to 99 | 101 to 900 | – | C=C(CN(C)C)C(=O)N1CCc2c(sc3ncnc(N[C@H](CO)c4ccccc4)c23)C1 |
| 1 to 99 | < 59 | 10 to 499 | C=CC(=O)N1CCc2c(sc3ncnc(N[C@H](CO)c4ccccc4)c23)C1 |
| 1 to 99 | < 59 | 10 to 499 | C=CC(=O)N1CCc2c(sc3ncnc(N[C@H](COCc4cccc([N+](=O)[O-])c4)c4ccccc4)c23)C1 |
| 1 to 99 | < 59 | – | CN(C)C/C=C/C(=O)N1CCc2c(sc3ncnc(N[C@H](COCc4ccncc4)c4ccccc4)c23)C1 |
| 1 to 99 | 101 to 900 | – | CC(C)NC/C=C/C(=O)N1CCc2c(sc3ncnc(N[C@H](C)c4ccccc4)c23)C1 |
| 100 to 300 | 101 to 900 | – | CC(=O)Nc1cccc(-c2c(-c3ccccc3)oc3ncnc(N[C@H](CO)c4ccccc4)c23)c1 |
| 301 to 999 | 60 to 100 | – | C=CC(=O)Nc1ccc(-c2c(-c3ccccc3)oc3ncnc(N[C@H](CO)c4ccccc4)c23)cc1 |
| – | 101 to 900 | – | O=C(O)[C@@H](Nc1ncnc2sc3c(c12)CCCC3)c1ccccc1 |
| 301 to 999 | – | – | COC(=O)[C@@H](Nc1ncnc2oc(-c3ccccc3)c(-c3ccccc3)c12)c1ccccc1 |
| 301 to 999 | 60 to 100 | – | C=CC(=O)Nc1cccc(-c2coc3ncnc(N[C@H](CO)c4ccccc4)c23)c1 |
| 301 to 999 | – | – | Cc1sc2ncnc(N[C@H](CO)c3ccccc3)c2c1C |
| 1 to 99 | < 59 | – | CC(=O)OC/C=C/C(=O)N1CCc2c(sc3ncnc(N[C@H](C)c4ccccc4)c23)C1 |
| – | 60 to 100 | – | COc1ccc(-c2oc3ncnc(N[C@H](CO)c4ccccc4)c3c2-c2ccc(OC)cc2)cc1 |
| 301 to 999 | – | – | CCOC(=O)[C@@H](Nc1ncnc2oc(-c3ccccc3)c(-c3ccccc3)c12)c1ccccc1 |
| 1 to 99 | 101 to 900 | – | C=CC(=O)Nc1ccc(-c2c(-c3ccccc3)oc3ncnc(N[C@H](C)c4ccccc4)c23)cc1 |
| – | 101 to 900 | – | OC[C@@H](Nc1ncnc2sc(-c3ccccc3)c(Cl)c12)c1ccccc1 |
| – | < 59 | – | CCN(CC)C/C=C/C(=O)N1CCc2c(sc3ncnc(N[C@H](CCO)c4ccccc4)c23)C1 |

| IC50 [1] [nM] | IC50 [2] [nM] | IC50 [3] [nM] | SMILES |
| --- | --- | --- | --- |
| – | < 59 | – | O=C(O)[C@@H](Nc1ncnc2oc(-c3ccccc3)c(-c3ccccc3)c12)c1ccccc1 |
| 301 to 999 | – | – | CC[C@@H](Nc1ncnc2oc(-c3ccccc3)cc12)c1ccccc1 |
| – | < 59 | – | CC(=O)OC[C@@H](Nc1ncnc2sc3c(c12)CCN(C(=O)/C=C/CN(C)C)C3)c1ccccc1 |
| – | 101 to 900 | – | OC[C@@H](Nc1ncnc2oc(-c3ccccc3)c(Cl)c12)c1ccccc1 |
| 301 to 999 | 101 to 900 | – | C[C@@H](Nc1ncnc2sc3c(c12)CCN(C(=O)/C=C/CNc1ccccc1)C3)c1ccccc1 |
| 1 to 99 | < 59 | – | C[C@@H](Nc1ncnc2sc3c(c12)CCN(C(=O)/C=C/CN=[N+]=[N-])C3)c1ccccc1 |
| – | 60 to 100 | – | C/C=C/C(=O)N1CCc2c(sc3ncnc(N[C@H](COCc4cccc(F)c4)c4ccccc4)c23)C1 |
| 1 to 99 | < 59 | – | C=CC(=O)Nc1cccc(-c2csc3ncnc(N[C@H](CO)c4ccccc4)c23)c1 |
| – | 101 to 900 | – | O=C(O)/C=C\C(=O)N1CCc2c(sc3ncnc(N[C@H](CO)c4ccccc4)c23)C1 |
| 1 to 99 | < 59 | – | CN(C)C/C=C/C(=O)N1CCc2c(sc3ncnc(N[C@H](CCOCc4ccccc4F)c4ccccc4)c23)C1 |
| 301 to 999 | – | – | CC(=O)OC[C@@H](Nc1ncnc2oc(-c3ccccc3)c(Br)c12)c1ccccc1 |
| 100 to 300 | 101 to 900 | – | OC[C@@H](Nc1ncnc2oc(-c3ccccc3)c(-c3ccoc3)c12)c1ccccc1 |
| 1 to 99 | 60 to 100 | – | CCN(CC)C/C=C/C(=O)N1CCc2c(sc3ncnc(N[C@H](COC)c4ccccc4)c23)C1 |
| – | 101 to 900 | – | C=CC(=O)Nc1cccc(-c2c(-c3ccccc3)oc3ncnc(N(C)[C@H](COC)c4ccccc4)c23)c1 |
| 301 to 999 | 101 to 900 | – | C=CC(=O)N1CCc2c(sc3ncnc(N[C@H](CO[Si](C)(C)C(C)(C)C)c4ccccc4)c23)C1 |
| 1 to 99 | < 59 | – | CCC[C@@H](Nc1ncnc2sc3c(c12)CCN(C(=O)/C=C/CN(C)C)C3)c1ccccc1 |
| – | < 59 | – | COCCN(C)C/C=C/C(=O)N1CCc2c(sc3ncnc(N[C@H](CO)c4ccccc4)c23)C1 |
| 1 to 99 | < 59 | – | C[C@@H](Nc1ncnc2sc3c(c12)CCN(C(=O)/C=C/CN(C)C)C3)c1ccc(Br)cc1 |
| 1 to 99 | < 59 | – | CN(C)C/C=C/C(=O)N1CCc2c(sc3ncnc(N[C@H](COCc4ccc(F)cc4)c4ccccc4)c23)C1 |
| 100 to 300 | 101 to 900 | – | COc1ccc(-c2c(-c3ccccc3)oc3ncnc(N[C@H](CO)c4ccccc4)c23)cc1 |
| 301 to 999 | 60 to 100 | – | CN(C)C/C=C/C(=O)N1CCc2c(sc3ncnc(N[C@H](CO[Si](C)(C)C(C)(C)C)c4ccccc4)c23)C1 |
| 301 to 999 | 101 to 900 | – | OC[C@@H](Nc1ncnc2oc(-c3ccccc3)c(-c3ccco3)c12)c1ccccc1 |
| – | 101 to 900 | – | O=C(O)[C@@H](Nc1ncnc2sc(-c3ccccc3)cc12)c1ccccc1 |
| – | < 59 | – | COC[C@@H](Nc1ncnc2sc3c(c12)CCN(C(=O)/C=C/CN(C)C)C3)c1ccccc1 |
